{"source": "patent US20040180082A1", "about": "“Submicron-liposome containing triterpenoid and a method for preparing the same” (AMOREPACIFIC CORPORATION, priority 2002, published 2004)", "experiment": "Wide angle X-ray diffraction of frozen-dried liposome", "assay_type": "physicochemical", "conditions": "2θ value at maximum diffraction no more increasing; FIGS. 2 and 3", "description": "The structures and the crystallinities (crystalline property) of the liposome were analyzed with powder XRD equipped with wide-angle diffractometer (Rigaku/USA, D/max-RB) using Cu-Kα (λ=1.54 Å) ray. The oleanolic acid (OA) and liposome prepared in Examples 1, 3, 4, 5 and 6 and frozen-dried were analyzed by X-ray diffraction in wide-angle (θ=2-50°), and the structures of hydrocarbon chains and the molecular distances of oleanolic acid (OA) crystals were determined by the result of the X-ray diffraction. […] Diffractions in a wide range of near 20° were observed because lipids formed smectic (lamellar) liquid-crystal phase, which correspond to the distances between lipid molecules."}
{"smiles": "CC1(C)CC[C@]2(C(=O)O)CC[C@]3(C)C(=CC[C@@H]4[C@@]5(C)CC[C@H](O)C(C)(C)[C@@H]5CC[C@]43C)[C@@H]2C1", "note": "[OA, oleanolic acid]", "values": [{"measurement": "content of OA at which OA is saturated in the bi-layer of the liposome", "value": 25.4, "unit": "mole %"}]}
